Results on four compounds are retold here after patent publication US5767085A, “Compounds with growth hormone releasing properties” (Novo Nordisk A/S, priority 1993, dated 1998).

pEC50: −log10 of the molar value. Where a SMILES comes first, the peptide text is derived from it. [ ]: non-standard residue; d: D form. d1Nal = N[C@H](Cc1cccc2ccccc12)C(=O)O; d2Nal = N[C@H](Cc1ccc2ccccc2c1)C(=O)O; Aib = CC(C)(N)C(=O)O

In the experiment the test system is rat pituitary cells. The experiment is described as follows: In-vitro GH release assay using rat pituitary cells (rGH measured by SPA). Type of experiment: cell-based. Particulars: GH secretion from cultured male rat anterior pituitary cells, 15 min stimulation. The method, then: An in-vitro assay using rat pituitary cells was established to study the effect of different GH secretagogues. The mixed pituitary cell culture was isolated from the anterior pituitary of male rats and cultured for 3 days. After washing the cells were stimulated for 15 min and the amount of GH secreted measured in the culture supernatant. The isolation of rat pituitary cells was a modification of 0. Sartor et al., Endocrinolog 116, 1985, pp. 952-957. Pituitaries were discharged from 250 g male Sprague-Dawley rats after decapitation. The neurointermediate lobes were removed and the remainder was placed in Grey's medium supplemented with 0.25% glucose, 2× non essential amino acid and 1% BSA (isolation buffer). The glands were cut into small pieces and transferred to a flask containing 3 ml isolation buffer+11.5 mg trypsin and 1000 μg DNase and incubated for 35 min at 37° C., 95% ° 2 and 70 rotations per min. The fragments were washed 3 times by sedimentation in isolation buffer and aspirated into single cells by using a pasteur pipet. After dispersion the cells were filtered though a nylon filter (160 jum) to remove undigested tissue. The cells were washed 3 times with isolation buffer supplemented with trypsin inhibitor (0.75 mg/ml) and resuspended in culture medium (DMEM supplemented with 25 mM HEPES, 4mM Glutamine, 0.75% sodium bicarbonate, 2.5% FCS, 3% horse serum, 10% rat serum, 1 nM T3 and 40 gg/L dexamethasone) to a density of 2×10^5 cells/ml. The cells were seeded into microtiter plates, 200 μl/well and cultured for 3 days at 37° C.and 8% CO2. Following the culture period the cells were washed twice with stimulation buffer (HBSS supplemented with 1% BSA, 0.25% D-glucose and 25 mM HEPES) and preincubated for 1 hour. The buffer was then removed and new stimulation buffer containing the peptide was added and the plates were incubated for 15 min at 37° C.and 5% CO2. The medium was collected and analyzed for rat growth hormone (rGH) content in a scintillation proximity assay (SPA) as follows (SPA, essentially as described in U.S. Pat. No. 4,568,649, Hart and […], Mol.Immunol. 16, 1979, pp. 265-269, or Udenfriend et al., Proc.Natl.Acad.Sci. USA 82, 1985, pp. 8672-8676). The rGH assay was performed in OptiPlates (96-well plates) suitable for direct counting in a […] TopCount (β-scintillation counter). Assay Protocol: 40 μl buffer 10 μl sample (incubated stimulation buffer) […] 50 μl rabbit anti-rGH 50 μl SPA reagent (anti-rabbit antibody) The plates are sealed and placed on a plate shaker for 30 minutes followed by 10 hours of incubation and settling at 10-15° C.and counting. In the SPA, rGH bound to an anti-GH rabbit antibody (primary antibody) is reacted with a second antibody bound to fluomicrospheres (SPA Type II RIA available from Amersham). Any radiolabelled rGH which is bound to the primary antibody will be immobilized on the fluomicrospheres which will then produce light. Measurement in a β-scintillation counter makes it possible to calculate the amount of radiolabelled rGH. The amount of radiolabelled rGH bound to the fluomicrospheres decreases with an increasing content of rGH in the sample.
As for `C[C@H](N)C(=O)N[C@@H](Cc1ccccc1)C(=O)N[C@H](Cc1ccc2ccccc2c1)C(=O)N[C@H](Cc1ccccc1)C(=O)N[C@@H](CCCCN)C(N)=O` [Example 10, H--Ala--Phe--D-2Nal-D--Phe--Lys--NH2] (H-AF[d2Nal][dF]K-NH2), the negative-log EC50 (pEC50) – broadly, the EC50 on a negative log10 scale, so that one unit is a factor of ten – was 8.70 and the “Emax (% of GHRP-6)” value is reported as 90 % of GHRP-6.
On the same counts, the results for `C[C@H](N)C(=O)N[C@@H](Cc1c[nH]cn1)C(=O)N[C@H](Cc1cccc2ccccc12)C(=O)N[C@H](Cc1ccccc1)C(=O)N[C@@H](CCCCN)C(N)=O` [Example 51, H--Ala--His--D-1Nal-D--Phe--Lys--NH2] (H-AH[d1Nal][dF]K-NH2) are 8.00 and 85 % of GHRP-6.
The matching figures for `CC(C)(N)C(=O)N[C@@H](Cc1ccccc1)C(=O)N[C@H](Cc1ccc2ccccc2c1)C(=O)N[C@H](Cc1ccccc1)C(=O)N[C@@H](CCCCN)C(N)=O` [Example 83, H--Aib--Phe--D-2Nal-D--Phe--Lys--NH2] (H-[Aib]F[d2Nal][dF]K-NH2): 8.10 and 75 % of GHRP-6.
As for `C[C@H](NC(=O)[C@@H](Cc1ccccc1)NC(=O)[C@@H](Cc1ccc2ccccc2c1)NC(=O)[C@H](Cc1c[nH]cn1)NC(=O)C(C)(C)N)C(N)=O` [Example 88, H--Aib--His--D-2Nal-D--Phe--Ala--NH2] (H-[Aib]H[d2Nal][dF]A-NH2), the pEC50 is 7.96 and the “Emax (% of GHRP-6)” value was 80 % of GHRP-6.
